Measured values: PMC7763472, “High Capability of Pentagalloylglucose (PGG) in Inhibiting Multiple Types of Membrane Ionic Currents” (International Journal of Molecular Sciences, 2020)

Target: T1, proton-activated Cl− channel (PAC) (Rattus norvegicus, UniProt Q66H28)
T1 construct: gene Pacc1
Assay: whole-cell patch clamp of native IPAC in GH3 cells, pH […], single concentration […]
Type: cell-based

T1 sequence (Q66H28 whole entry): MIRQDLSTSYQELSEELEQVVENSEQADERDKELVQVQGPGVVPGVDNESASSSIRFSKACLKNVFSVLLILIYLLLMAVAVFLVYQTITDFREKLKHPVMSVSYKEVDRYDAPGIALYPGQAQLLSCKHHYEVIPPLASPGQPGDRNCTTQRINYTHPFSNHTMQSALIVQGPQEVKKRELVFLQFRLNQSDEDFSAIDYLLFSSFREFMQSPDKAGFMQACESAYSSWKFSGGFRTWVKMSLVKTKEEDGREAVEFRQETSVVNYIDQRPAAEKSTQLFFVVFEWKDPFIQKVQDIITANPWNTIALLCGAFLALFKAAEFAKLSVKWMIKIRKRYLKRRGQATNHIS

## CCCCC1(C2CCCC2)Cc2cc(OCCCC(=O)O)c(Cl)c(Cl)c2C1=O (stereo not shown) [DCPIB, 4-[(2-Butyl-6,7-dichloro-2-cyclopentyl-2,3-dihydro-1-oxo-1H-inden-5yl)oxy] butanoic acid]
  inhibition at 10 µM: 51%
